Assay results published in PMC4832243, “Discovery of Potent VEGFR-2 Inhibitors based on Furopyrimidine and Thienopyrimidne Scaffolds as Cancer Targeting Agents” (Scientific Reports, 2016).

Tests used:
Type in all cases: cell-based
[1] = tested on: K-562; test: NCI 60 cell line panel (SRB), K-562; conditions: Homo sapiens, K562; K-562, Leukemia; single dose of 10 μM; read-out: Cell Growth Percent
[2] = tested on: RPMI-8226; test: NCI 60 cell line panel (SRB), RPMI-8226; conditions: Homo sapiens; RPMI-8226, Leukemia; single dose of 10 μM; read-out: Cell Growth Percent
[3] = tested on: A549/ATCC; test: NCI 60 cell line panel (SRB), A549/ATCC; conditions: Homo sapiens, Non-Small Cell Lung Cancer, single dose of 10 μM, read-out: Cell Growth Percent
[4] = tested on: EKVX; test: NCI 60 cell line panel (SRB), EKVX; conditions: Homo sapiens, Non-Small Cell Lung Cancer, single dose of 10 μM, read-out: Cell Growth Percent
[5] = tested on: NCI-H226; test: NCI 60 cell line panel (SRB), NCI-H226; conditions: Homo sapiens; NCI-H226, Non-Small Cell Lung Cancer; single dose of 10 μM; read-out: Cell Growth Percent
[6] = tested on: NCI-H322M; test: NCI 60 cell line panel (SRB), NCI-H322M; conditions: Homo sapiens, Non-Small Cell Lung Cancer, single dose of 10 μM, read-out: Cell Growth Percent
[7] = tested on: NCI-H460; test: NCI 60 cell line panel (SRB), NCI-H460; conditions: Homo sapiens; NCI-H460, Non-Small Cell Lung Cancer; single dose of 10 μM; read-out: Cell Growth Percent
[8] = tested on: HCT-116; test: NCI 60 cell line panel (SRB), HCT-116; conditions: Homo sapiens; HCT-116, Colon Cancer; single dose of 10 μM; read-out: Cell Growth Percent
[9] = tested on: HT29; test: NCI 60 cell line panel (SRB), HT29; conditions: Homo sapiens, HT-29; HT29, Colon Cancer; single dose of 10 μM; read-out: Cell Growth Percent
[10] = tested on: KM12; test: NCI 60 cell line panel (SRB), KM12; conditions: Homo sapiens; KM12, Colon Cancer; single dose of 10 μM; read-out: Cell Growth Percent
[11] = tested on: SF-295; test: NCI 60 cell line panel (SRB), SF-295; conditions: Homo sapiens; SF-295, CNS Cancer; single dose of 10 μM; read-out: Cell Growth Percent
[12] = tested on: SNB-19; test: NCI 60 cell line panel (SRB), SNB-19; conditions: Homo sapiens; SNB-19, CNS Cancer; single dose of 10 μM; read-out: Cell Growth Percent
[13] = tested on: LOX IMVI; test: NCI 60 cell line panel (SRB), LOX IMVI; conditions: Homo sapiens, Melanoma, single dose of 10 μM, read-out: Cell Growth Percent
[14] = tested on: MALME-3M; test: NCI 60 cell line panel (SRB), MALME-3M; conditions: Homo sapiens, Melanoma, single dose of 10 μM, read-out: Cell Growth Percent
[15] = tested on: M14; test: NCI 60 cell line panel (SRB), M14; conditions: Homo sapiens; M14, Melanoma; single dose of 10 μM; read-out: Cell Growth Percent
[16] = tested on: MDA-MB-435; test: NCI 60 cell line panel (SRB), MDA-MB-435; conditions: Homo sapiens; MDA-MB-435, Melanoma; single dose of 10 μM; read-out: Cell Growth Percent
[17] = tested on: SK-MEL-2; test: NCI 60 cell line panel (SRB), SK-MEL-2; conditions: Homo sapiens; SK-MEL-2, Melanoma; single dose of 10 μM; read-out: Cell Growth Percent
[18] = tested on: SK-MEL-28; test: NCI 60 cell line panel (SRB), SK-MEL-28; conditions: Homo sapiens; SK-MEL-28, Melanoma; single dose of 10 μM; read-out: Cell Growth Percent
[19] = tested on: UACC-62; test: NCI 60 cell line panel (SRB), UACC-62; conditions: Homo sapiens; UACC-62, Melanoma; single dose of 10 μM; read-out: Cell Growth Percent
[20] = tested on: IGROV1; test: NCI 60 cell line panel (SRB), IGROV1; conditions: Homo sapiens, IGROV-1; IGROV1, Ovarian Cancer; single dose of 10 μM; read-out: Cell Growth Percent
[21] = tested on: OVCAR-3; test: NCI 60 cell line panel (SRB), OVCAR-3; conditions: Homo sapiens; OVCAR-3, Ovarian Cancer; single dose of 10 μM; read-out: Cell Growth Percent
[22] = tested on: OVCAR-4; test: NCI 60 cell line panel (SRB), OVCAR-4; conditions: Homo sapiens; OVCAR-4, Ovarian Cancer; single dose of 10 μM; read-out: Cell Growth Percent
[23] = tested on: OVCAR-8; test: NCI 60 cell line panel (SRB), OVCAR-8; conditions: Homo sapiens; OVCAR-8, Ovarian Cancer; single dose of 10 μM; read-out: Cell Growth Percent
[24] = tested on: NCI/ADR-RES; test: NCI 60 cell line panel (SRB), NCI/ADR-RES; conditions: Homo sapiens, Ovarian Cancer, single dose of 10 μM, read-out: Cell Growth Percent
[25] = tested on: SK-OV-3; test: NCI 60 cell line panel (SRB), SK-OV-3; conditions: Homo sapiens; SK-OV-3, Ovarian Cancer; single dose of 10 μM; read-out: Cell Growth Percent
[26] = tested on: 786-0; test: NCI 60 cell line panel (SRB), 786-0; conditions: Homo sapiens; 786-0, Renal Cancer; single dose of 10 μM; read-out: Cell Growth Percent
[27] = tested on: ACHN; test: NCI 60 cell line panel (SRB), ACHN; conditions: Homo sapiens, Renal Cancer, single dose of 10 μM, read-out: Cell Growth Percent
[28] = tested on: CAKI-1; test: NCI 60 cell line panel (SRB), CAKI-1; conditions: Homo sapiens; CAKI-1, Renal Cancer; single dose of 10 μM; read-out: Cell Growth Percent
[29] = tested on: SN12C; test: NCI 60 cell line panel (SRB), SN12C; conditions: Homo sapiens, Renal Cancer, single dose of 10 μM, read-out: Cell Growth Percent
[30] = tested on: TK-10; test: NCI 60 cell line panel (SRB), TK-10; conditions: Homo sapiens; TK-10, Renal Cancer; single dose of 10 μM; read-out: Cell Growth Percent
[31] = tested on: UO-31; test: NCI 60 cell line panel (SRB), UO-31; conditions: Homo sapiens; UO-31, Renal Cancer; single dose of 10 μM; read-out: Cell Growth Percent
[32] = tested on: MCF7; test: NCI 60 cell line panel (SRB), MCF7; conditions: Homo sapiens; MCF7, Breast Cancer; single dose of 10 μM; read-out: Cell Growth Percent
[33] = tested on: BT-549; test: NCI 60 cell line panel (SRB), BT-549; conditions: Homo sapiens; BT-549, Breast Cancer; single dose of 10 μM; read-out: Cell Growth Percent
[34] = tested on: T-47D; test: NCI 60 cell line panel (SRB), T-47D; conditions: Homo sapiens, T47D, Breast Cancer, single dose of 10 μM, read-out: Cell Growth Percent
[35] = tested on: MDA-MB-468; test: NCI 60 cell line panel (SRB), MDA-MB-468; conditions: Homo sapiens; MDA-MB-468, Breast Cancer; single dose of 10 μM; read-out: Cell Growth Percent

| Compound | activity at 10 µM [1] [%] | activity at 10 µM [2] [%] | activity at 10 µM [3] [%] | activity at 10 µM [4] [%] | activity at 10 µM [5] [%] | activity at 10 µM [6] [%] | activity at 10 µM [7] [%] | activity at 10 µM [8] [%] | activity at 10 µM [9] [%] | activity at 10 µM [10] [%] | activity at 10 µM [11] [%] | activity at 10 µM [12] [%] | activity at 10 µM [13] [%] | activity at 10 µM [14] [%] | activity at 10 µM [15] [%] | activity at 10 µM [16] [%] | activity at 10 µM [17] [%] | activity at 10 µM [18] [%] | activity at 10 µM [19] [%] | activity at 10 µM [20] [%] | also measured |
| --- | --- | --- | --- | --- | --- | --- | --- | --- | --- | --- | --- | --- | --- | --- | --- | --- | --- | --- | --- | --- | --- |
| O=C(Nc1ccccc1)Nc1ccc(Oc2ncnc3sc4c(c23)CCCC4)cc1 [Compound 21a] | 26.1 | 50.5 | 67.8 | 60.8 | 66.6 | 99.7 | 70.7 | 67.4 | 74.3 | 46.4 | 64.9 | 63.1 | 69.5 | 84.2 | 56.5 | 19.2 | 87.6 | 86.6 | 66.5 | 87.2 | activity at 10 µM [21]: 74.9%; activity at 10 µM [22]: 55.1%; activity at 10 µM [23]: 93.5%; activity at 10 µM [24]: 63.2%; activity at 10 µM [25]: 72.2%; activity at 10 µM [26]: 84.8%; activity at 10 µM [27]: 78.7%; activity at 10 µM [28]: 83.4%; activity at 10 µM [29]: 83.3%; activity at 10 µM [30]: 86.1%; activity at 10 µM [31]: 55.2%; activity at 10 µM [32]: 44.5%; activity at 10 µM [33]: 63.8%; activity at 10 µM [34]: 37.9%; activity at 10 µM [35]: 53.6% |
| Cc1cccc(NC(=O)Nc2ccc(Oc3ncnc4sc5c(c34)CCCC5)cc2)c1 [Compound 21b] | 57.9 | 58.9 | 66.5 | 62.8 | 73.1 | 91.2 | 65.2 | 62.1 | 65.6 | 37.3 | 67.6 | 72 | 77.3 | 104 | 68.2 | 79.3 | 99.7 | 91.6 | 75.7 | 89 | activity at 10 µM [21]: 63.5%; activity at 10 µM [22]: 61.2%; activity at 10 µM [23]: 85.9%; activity at 10 µM [24]: 71.5%; activity at 10 µM [25]: 79.7%; activity at 10 µM [26]: 87%; activity at 10 µM [27]: 73.4%; activity at 10 µM [28]: 86%; activity at 10 µM [29]: 75.9%; activity at 10 µM [30]: 72.5%; activity at 10 µM [31]: 59%; activity at 10 µM [32]: 44.1%; activity at 10 µM [33]: 71.9%; activity at 10 µM [34]: 49.2%; activity at 10 µM [35]: 87.2% |
| COc1cccc(NC(=O)Nc2ccc(Oc3ncnc4sc5c(c34)CCCC5)cc2)c1 [Compound 21c] | 64.6 | 46.7 | 61.2 | 66.2 | 65.1 | 95.8 | 65.7 | 55.8 | 54.8 | 27.5 | 76.1 | 70.2 | 61.5 | 88.5 | 67.3 | 73.1 | 97.3 | 83.7 | 70.9 | 88.7 | activity at 10 µM [21]: 68.3%; activity at 10 µM [22]: 56.6%; activity at 10 µM [23]: 89.9%; activity at 10 µM [24]: 70.5%; activity at 10 µM [25]: 78.2%; activity at 10 µM [26]: 97.6%; activity at 10 µM [27]: 75%; activity at 10 µM [28]: 80.8%; activity at 10 µM [29]: 78.2%; activity at 10 µM [30]: 73.5%; activity at 10 µM [31]: 52.5%; activity at 10 µM [32]: 54.4%; activity at 10 µM [33]: 88.5%; activity at 10 µM [34]: 41.7%; activity at 10 µM [35]: 69.3% |
| O=C(Nc1ccc(Cl)cc1)Nc1ccc(Oc2ncnc3sc4c(c23)CCCC4)cc1 [Compound 21d] | 84.2 | 68.8 | 66.6 | 82.9 | 74 | 103 | 82.1 | 82.6 | 86.4 | 69.1 | 101 | 79.5 | 84.8 | 98.9 | 87 | 93.7 | 104 | 92.6 | 73.2 | 108 | activity at 10 µM [21]: 85.8%; activity at 10 µM [22]: 93.6%; activity at 10 µM [23]: 94.7%; activity at 10 µM [24]: 85%; activity at 10 µM [25]: 90.8%; activity at 10 µM [26]: 108%; activity at 10 µM [27]: 95.4%; activity at 10 µM [28]: 95.4%; activity at 10 µM [29]: 86.5%; activity at 10 µM [30]: 88.3%; activity at 10 µM [31]: 71.2%; activity at 10 µM [32]: 83.2%; activity at 10 µM [33]: 112%; activity at 10 µM [34]: 73.3%; activity at 10 µM [35]: 103% |
